US11319303B2 (WIGEN BIOMEDICINE TECHNOLOGY (SHANGHAI) CO., LTD., priority 2017, dated 2022)
Where a name gives a salt, the structure may show the parent alone.

The compounds below were run against LC3B (Homo sapiens, UniProt Q9GZQ8) (assay: Fluorescence Polarization (FP) Assay: displacement of FITC-labeled peptide from GST-LC3B). Conditions: not given.
Assay type: binding
Method: The compounds of the present invention for regulating the autophagy-related protein LC3B were tested by Fluorescence Polarization (FP) Assay.
Fluorescence Polarization (FP) Assay Test

Row | SMILES | IC50
1 | O=C1CC(c2ccccc2)CC(=O)C1=CNC1CCSC1=O (stereo not shown) [Compound 137, 2-(((2-oxotetrahydro-thiophen-3-yl)amino)methylene)-5-phenylcyclohexane-1,3-dione] | 3 to 15 µM

Same assay, conditions: Fluorescence Polarization assay; GST-LC3B 180 nM, FITC-labeled peptide 18 nM, 25° C.; read-out: IC50

Row | SMILES | IC50
2 | CC(=O)OCC(=O)C1=C(O)CC(c2ccccc2)CC1=O (stereo not shown) [Compound 111, 2-(5-hydroxy-3-oxo-1,2,3,6-tetrahydro-[1,1′ -biphenyl]-4-yl)-2-oxoethyl acetate] | 100 to 1000 µM
3 | O=C(CO)C1C(=O)CC(c2ccccc2)CC1=O (stereo not shown) [Compound 112, 2-(hydroacetyl)-5-pheyl-cyclohexane-1,3-dione] | 15 to 100 µM
4 | CN(C)CCNC=C1C(=O)CC(c2ccccc2)CC1=O (stereo not shown) [Compound 119, 2-(((2-(dimethylamino)ethyl)amino)methylene)-5-phenylcyclo-hexane-1,3-dione] | < 3 µM
5 | C[C@H](NC=C1C(=O)CC(c2ccccc2)CC1=O)C(=O)O (stereo partly drawn) [Compound 121, ((2,6-dioxo-4-phenylcyclo-hexylidene)methyl)-L-alanine] | 15 to 100 µM
6 | C[C@H](NC=C1C(=O)CC(c2ccccc2)CC1=O)C(=O)OCc1ccccc1 (stereo partly drawn) [Compound 122, benzyl ((2,6-dioxo-4-phenylcyclo-hexylidene)methyl)-L-alaninate] | 100 to 1000 µM
7 | O=C1CC(c2ccccc2)CC(=O)C1=CN[C@@H](Cc1ccccc1)C(=O)O (stereo partly shown) [Compound 123, ((2,6-dioxo-4-phenylcyclo-hexylidene)methyl) phenylalanine] | 100 to 1000 µM
8 | CCOC(=O)[C@H](Cc1ccccc1)NC=C1C(=O)CC(c2ccccc2)CC1=O (stereo partly shown) [Compound 124, (l)-ethyl ((2,6-dioxo-4-phenylcyclo-hexylidene)methyl) phenylalaninate] | 100 to 1000 µM
9 | O=C1CC(c2ccccc2)CC(=O)C1=CN[C@@H](Cc1ccccc1)C(=O)OCc1ccccc1 (stereo partly drawn) [Compound 125, benzyl ((2,6-dioxo-4-phenylcyclo-hexylidene)methyl)-L-phenylalaninate] | 100 to 1000 µM
10 | O=C1CC(c2ccccc2)CC(=O)C1=CN[C@@H](Cc1c[nH]cn1)C(=O)O (stereo partly drawn) [Compound 126, ((2,6-dioxo-4-phenylcyclo-hexylidene)methyl)-L-histidine] | 15 to 100 µM
11 | COC(=O)C(CCSC)NC=C1C(=O)CC(c2ccccc2)CC1=O (stereo not shown) [Compound 127, methyl ((2,6-dioxo-4-phenylcyclo-hexylidene)methyl) methioninate] | 15 to 100 µM
12 | O=C1CC(c2ccccc2)CC(=O)C1=CNCCc1c[nH]c2ccccc12 (stereo not shown) [Compound 135, 2-(((2-(1H-indol-3-yl)ethyl)amino)methylene)-5-phenylcyclo-hexane-1,3-dione] | 100 to 1000 µM
13 | O=C1CC(c2ccccc2)CC(=O)C1=CNC1CCC(O)CC1 (stereo not shown) [Compound 136, 2-(((4-hydroxycyclohexyl)amino)methylene)-5-phenylcyclohexane-1,3-dione] | 100 to 1000 µM
14 | O=C1CC(c2ccccc2)CC(=O)C1=CNC1CCNCC1 (stereo not shown) [Compound 140, 5-phenyl-2-((piperidin-4-ylamino)methylene) cyclohexane-1,3-dione hydrochloride] | 15 to 100 µM
15 | O=C1CC(c2ccccc2)CC(=O)C1=CNC1CCCNC1 (stereo not shown) [Compound 141, 5-phenyl-2-((piperidin-3-ylamino)methylene) cyclohexane-1,3-dione hydrochloride] | 3 to 15 µM
16 | C=CCNC=C1C(=O)CC(c2ccccc2)CC1=O (stereo not shown) [Compound 143, 2-((allylamino)methylene)-5-phenylcyclo-hexane-1,3-dione] | 15 to 100 µM
17 | COc1ccc(CNC=C2C(=O)CC(c3ccccc3)CC2=O)cc1 (stereo not shown) [Compound 145, 2-(((4-methoxybenzyl)amino)methylene)-5-phenylcyclo-hexane-1,3-dione] | 100 to 1000 µM
18 | COc1ccc(NC=C2C(=O)CC(c3ccccc3)CC2=O)cn1 (stereo not shown) [Compound 147, 2-(((6-methoxypyridin-3-yl)amino)methylene)-5-phenylcyclo-hexane-1,3-dione] | 15 to 100 µM
19 | O=C1CC(c2ccccc2)CC(=O)C1=CNc1nc(C(=O)O)cs1 (stereo not shown) [Compound 148, 2-(((2,6-dioxo-4-phenylcyclo-hexylidene)methyl)amino) thiazole-4-carboxylic acid] | < 3 µM
20 | O=C1CC(c2ccccc2)CC(=O)C1=CNc1ncc([N+](=O)[O-])s1 (stereo not shown) [Compound 150, 2-(((5-nitrothiazol-2-yl)amino)methylene)-5-phenylcyclohexane-1,3-dione] | < 3 µM

The next lines start with the values.

Row | IC50 | SMILES
21 | 100 to 1000 µM | O=C1CCN(c2ccccc2)C(=O)/C1=C\NCCN1CCN(CCO)CC1 [Compound 99, 3-(((2-(4-(2-hydroxyethyl)piperazin-1-yl)ethyl)amino)methylene)-1-phenylpiperidine-2,4-dione]
22 | 15 to 100 µM | O=C1CCC(c2ccc(F)cc2)C(=O)C1=CNCCN1CCN(CCO)CC1 (stereo not shown) [Compound 100, 4-(4-fluorophenyl)-2-(((2-(4-(2-hydroxyethyl)piperazin-1-yl)ethyl)amino)methylene)cyclohexane-1,3-dione]
23 | 15 to 100 µM | O=C1C(=CNCCN2CCN(CCO)CC2)C(=O)C(c2ccccc2)CC1Cc1ccccc1 (stereo not shown) [Compound 101, 4-benzyl-2-(((2-(4-(2-hydroxyethyl)piperazin-1-yl)ethyl)amino)methylene)-6-phenylcyclohexane-1,3-dione]
24 | 15 to 100 µM | COc1ccc(CN2CC(=O)C(=CNCCN3CCN(CCO)CC3)C(=O)C2)cc1 [Compound 102, 4-(((2-(4-(2-hydroxyethyl)piperazin-1-yl)ethyl)amino)methylene)-1-(4-methoxybenzyl)piperidine-3,5-dione]
25 | 15 to 100 µM | O=C1CN(Cc2ccccc2)CC(=O)C1=CNCCN1CCN(CCO)CC1 [Compound 103, 1-benzyl-4-(((2-(4-(2-hydroxyethyl)piperazin-1-yl)ethyl)amino)methylene)-piperidine-3,5-dione]
26 | 15 to 100 µM | O=C1CN(C(=O)c2ccccc2)CC(=O)C1=CNCCN1CCN(CCO)CC1 [Compound 104, 1-benzoyl-4-(((2-(4-(2-hydroxyethyl)piperazin-1-yl)ethyl)amino)methylene)-piperidine-3,5-dione]
27 | 100 to 1000 µM | O=C1CC(C(=O)N2CCOCC2)CC(=O)C1=CNCCN1CCN(CCO)CC1 (stereo not shown) [Compound 106, 2-(((2-(4-(2-hydroxyethyl)piperazin-1-yl)ethyl)amino)methylene)-5-(morpholine-4-carbonyl)cyclohexane-1,3-dione]
28 | 15 to 100 µM | O=C1Nc2ccccc2C(=O)/C1=C/NCCN1CCN(CCO)CC1 [Compound 107, 3-(((2-(4-(2-hydroxyethyl)piperazin-1-yl)ethyl)amino)methylene)quinoline-2,4(1H,3H)-dione]
29 | 100 to 1000 µM | CC(NCCN1CCN(CCO)CC1)=C1C(=O)CC(c2ccccc2)CC1=O (stereo not shown) [Compound 108, 2-(1-((2-(4-(2-hydroxyethyl)piperazin-1-yl)ethyl)amino)ethylidene)-5-phenylcyclohexane-1,3-dione]
30 | 100 to 1000 µM | O=C1CC(c2ccccc2)CC(=O)C1=C(NCCN1CCN(CCO)CC1)c1ccccc1 (stereo not shown) [Compound 110, 2-(((2-(4-(2-hydroxyethyl)piperazin-1-yl)ethyl)amino)(phenyl)methylene)-5-phenylcyclohexane-1,3-dione]
31 | 100 to 1000 µM | O=C1CC2c3ccccc3CCC2C(=O)/C1=C\NCCN1CCN(CCO)CC1 (stereo not shown) [Compound 113, 2-(((2-(4-(2-hydroxyethyl)piperazin-1-yl)ethyl)amino)methylene)-4a,9,10,10a-tetrahydrophenanthrene-1,3(2H,4H)-dione]
32 | 100 to 1000 µM | O=C1CC([C@H]2O[C@@H](n3cnc4c(N5CCOCC5)ncnc43)[C@H](O)[C@@H]2O)CC(=O)C1=CNCCN1CCN(CCO)CC1 (stereo partly drawn) [Compound 114, 5-((2R, 3S, 4R, 5R)-3,4-dihydroxy-5-(6-morpholino-9H-purin-9-yl)tetrahydrofuran-2-yl)-2-(((2-(4-(2-hydroxyethyl)piperazin-1-yl)ethyl)amino)methylene)cyclohexane-1,3-dione]
33 | 3 to 15 µM | O=C1CC(Cc2ccccc2)C(=O)/C1=C/NCCN1CCN(CCO)CC1 (stereo not shown) [Compound 115, 4-benzyl-2-(((2-(4-(2-hydroxyethyl)piperazin-1-yl)ethyl)amino)-methylene)cyclopentane-1,3-dione]
34 | < 3 µM | CC1C(=O)C(=CNCCN2CCN(CCO)CC2)C(=O)CC1c1ccccc1 (stereo not shown) [Compound 116, 2-(((2-(4-(2-hydroxyethyl)piperazin-1-yl)ethyl)amino)methylene)-4-methyl-5-phenylcyclohexane-1,3-dione]
35 | < 3 µM | CCN(CC)CCNC=C1C(=O)CC(c2ccccc2)CC1=O (stereo not shown) [Compound 120, 2-(((2-(diethylamino)ethyl)amino)methylene)-5-phenylcyclo-hexane-1,3-dione]
36 | 100 to 1000 µM | COCCNC=C1C(=O)CC(c2ccccc2)CC1=O (stereo not shown) [Compound 128, 2-(((2-methoxyethyl)amino)methylene)-5-phenylcyclohexane-1,3-dione]
37 | 15 to 100 µM | COC(=O)CNC=C1C(=O)CC(c2ccccc2)CC1=O (stereo not shown) [Compound 129, methyl ((2,6-dioxo-4-phenylcyclo-hexylidene)methyl)glycinate]
38 | 15 to 100 µM | O=C(O)CCCNC=C1C(=O)CC(c2ccccc2)CC1=O (stereo not shown) [Compound 131, 4-(((2,6-dioxo-4-phenylcyclo-hexylidene)methyl)amino) butanoic acid]
39 | 100 to 1000 µM | O=C1CC(c2ccccc2)CC(=O)C1=CNCCCCO (stereo not shown) [Compound 132, 2-(((4-hydroxybutyl)amino)methylene)-5-phenylcyclohexane-1,3-dione]
40 | 100 to 1000 µM | O=C1CC(c2ccccc2)CC(=O)C1=CNCCCCl (stereo not shown) [Compound 133, 2-(((3-chloropropyl)amino)methylene)-5-phenylcyclohexane-1,3-dione]
41 | 100 to 1000 µM | O=C1CC(c2ccccc2)CC(=O)C1=CNCCOCCO (stereo not shown) [Compound 134, 2-(((2-(2-hydroxyethoxy)ethyl)amino)methylene)-5-phenylcyclohexane-1,3-dione]
42 | 15 to 100 µM | CN1CCC(NC=C2C(=O)CC(c3ccccc3)CC2=O)CC1 (stereo not shown) [Compound 142, 2-(((1-methylpiperidin-4-yl)amino)methylene)-5-phenylcyclohexane-1,3-dione]
43 | 15 to 100 µM | O=C1Oc2ccccc2C(=O)C1=CNCCN1CCN(CCO)CC1 [Compound 155, 3-(((2-(4-(2-hydroxyethyl)piperazin-1-yl)ethyl)amino)methylene) chromanone-2,4-dione]
